Data reported in paper PMC6331810, “Novel Coumarin-Containing Aminophosphonatesas Antitumor Agent: Synthesis, Cytotoxicity, DNA-Binding and Apoptosis Evaluation” (Molecules, 2015).

Key:
[1] = system: HUVEC (Human Umbilical Vein Endothelial Cells); test: MTT cytotoxicity assay, HUVEC normal cells; type: cell-based; conditions: no irradiation, mean ± SD of three experiments
Method: (§1) Cell Lines. The following in vitro human cancer cell lines were used: HCT-116 (Human colorectal cells), human KB (human nasopharyngeal carcinoma cells), MGC-803 (human lung adenocarcinoma cell line), HUVEC (Human Umbilical Vein Endothelial Cells). The cell lines (HCT-116, KB, MGC-803 and HUVEC) were purchased from the Cell Resource Center of Shanghai Institutes for Biological Sciences, the Academy of Sciences of China.
(§2) Cell Culture. HCT-116, human KB, MGC-803 and HUVEC cells were cultured in Dulbecco Modified Eagle Medium (DMEM; HyClone, Los Angeles, CA, USA), containing 4.0 mM L-Glutamine and 4500 mg/L Glucose, supplemented with 10% (v/v) foetalbovine serum (FBS; HyClone). The cell culturemedia was supplemented with penicillin/streptomycin at 100 Units/mL as adherent monolayers. Cell cultures were kept in a humidified incubator with 5% CO2 at 37 °C. Stock solutions were prepared in dimethyl sulfoxide (DMSO) and further dilutions were made with fresh culture medium. The concentration of DMSO in the final culture medium was 1%, which had no effect on the cell viability.
(§3) MTT Assay. Chemosensitivity was assessed using 3-(4,5-dimethylthiazol-2-yl)-2,5-diphenyl tetrazolium bromide (MTT) assay. Briefly, exponentially growing HCT-116 (3000–4000 cells/well), human KB (2000–3000 cells/well) and MGC 803 (2000–3000 cells/well) were seeded into 96-well plates and treated with indicated concentrations of samples for 48 h, and then […] of MTT (10 mg/mL) was added. After incubation for 4 h at 37 °C, the purple formazan crystals (i.e., a reduced form of MTT) generated from viable cells were dissolved by adding 100 μL DMSO in each well. The plates were swirled gently for 10 min to dissolve the precipitate, and quantified by measuring the optical density (OD) of the plates at a wavelength of 490 nm on plate reader (TECAN infinite M1000). Each concentration was repeated in three wells and the same experimental conditions were provided for all compounds and MTT analysis was repeated three times for each cell line.

[2] = system: HCT-116 (Human colorectal cells); test: MTT cytotoxicity assay, HCT-116; type: cell-based; conditions: for IC50: MTT, 48 h, no irradiation, mean ± SD of three experiments
Method: as §1, §2, §3

GelRed/CT-DNA = test: GelRed-DNA competitive binding (fluorescence quenching); parameters: species or system calf; conditions: I0/I vs [Q]; [GelRed]/[DNA] = 1:10, ex 350 nm, em 590 nm
CT-DNA = test: Circular dichroism spectra of CT-DNA; type: binding, calf; conditions: [compound]/[DNA] 1:10; 1.5 × 10^−4 M DNA, 1.5 × 10^−5 M compound
Method: CD absorption spectra of DNA were measured in TBS at a 100 nm/min scan rate in the wavelength range from 200 to 500 nm, with 1.5 × 10^−4 M DNA in the absence and presence of each compound of 1.5 × 10^−5 M, respectively. The CD signal of TBS was taken as the background and subtracted from the spectra. All the spectroscopic experiments were performed at 25 °C.

HCT-116 cells = test: Apoptosis and cell cycle analysis by flow cytometry (PI staining); type: cell-based, human; conditions: HCT-116, 48 h at IC50 concentration
Method: Compared to the control (untreated cells), changes in the cell cycle distribution of treated HCT-116 cells were evident.
Figure 6 Inhibition of cell cycle progress in HCT-116 cells treated with compounds 8d, 8f, 8c and 8j for 48 h. Cells were fixed with ethanol and stained with PI. Cell cycle distribution was analyzed by flow cytometry. First peak represents sub-G1 peak, which was taken as the fraction of the apoptotic cell population. TEXT PRINTED IN THE PICTURE: 8d: Diploid: 100.00%; Dip G1: 87.24 % at 74.84; Dip G2: 7.42 % at 147.44; Dip S: 5.34 % | 8f: Diploid: 100.00%; Dip G1: 74.25 % at 73.13; Dip G2: 10.86 % at 144.07; Dip S: 14.89 % | 8c: Diploid: 100.00%; Dip G1: 82.72 % at 72.85; Dip G2: 6.28 % at 143.51; Dip S: 11.00% | 8j: Diploid: 100.00%; Dip G1: 15.12 % at 45.10; Dip G2: 52.47 % at 88.84; Dip S: 32.40%; Apoptosis: 4.01 % Mean: 33.84 | Control (−): Diploid: 100.00%; Dip G1: 35.32 % at 52.60; Dip G2: 19.20 % at 103.62; Dip S: 45.84% DOUBTS OF THE COPYIST ABOUT THIS PICTURE: Print is small throughout, so 3, 5, 6, 8 and 9 cannot be told apart with certainty in the values below; best readings are given. / 8d, Dip G1: 87.24 % at 74.84, the 8s uncertain / 8d, Dip S: 5.34, the 5 and 3 uncertain / 8f, Dip G2: 10.86 % at 144.07, the 8 and 6 uncertain / 8f, Dip S: 14.89, the 8 and 9 uncertain / 8c, Dip G1: 82.72 % at 72.85, the 8s and 5 uncertain / 8c, Dip G2: 6.28 % at 143.51, the 6, 8, 3 and 5 uncertain / 8j, Dip G2: 52.47 % at 88.84, the 5 and 8s uncertain / 8j, Apoptosis: 4.01 % Mean: 33.84, the 3s and 8 uncertain / Control (−), Dip G1: 35.32 % at 52.60, the 3s, 5s and 6 uncertain / Control (−), Dip G2: 19.20 % at 103.62, the 9, 3 and 6 uncertain / Control (−), Dip S: 45.84, the 5 and 8 uncertain / Control (−) is an untreated control, not a compound; it is included because results are printed with it. / G2/G1: 1.97 and %CV, printed in every plot, are left out as fit parameter and statistic.
Apoptosis was quantified by assessing the fraction of cells with sub-G1 DNA content by flow cytometry. The cells lines were treated with indicated concentrations of compounds […]. After incubated for 48 h, cells were washed twice with ice-cold PBS, fixed and permeabilized with ice-cold 70% ethanol at −20 °C overnight. The cells were treated with 100 μg/mL RNase A at 37 °C for 30 min after washed with ice-cold PBS, and finally stained with 1 mg/mL propidium iodide (PI) in the dark at 4 °C for 30 min. Analysis was performed with the system software (Cell Quest; BD Biosciences, Franklin Lakes, NJ, USA).

Row | SMILES | IC50 [1] | IC50 [2] | Kq (quenching constant of GelRed bound to DNA) (GelRed/CT-DNA) | Negative AI decrease (CD absorption peak of CT-DNA at 247 nm) (CT-DNA) | Positive AI decrease (CD absorption peak of CT-DNA at 281 nm) (CT-DNA) | G1-phase population (HCT-116 cells; untreated cells 35.32%) | IC50 ([1]; Homo sapiens, HUVEC, light or radiation study) | Fold of IC50 against HCT-116 relative to unsubstituted parent compound ([2]; HCT-116, vs 4-MU) | IC50 ([2]; Homo sapiens, HCT-116, light or radiation study) | Cell cycle effect in words (HCT-116 cells)
1 | CCOP(=O)(OCC)C(NC(=O)CCOc1ccc2c(C)cc(=O)oc2c1)c1cccc(Br)c1 (stereo not shown) [Compound 8f, Diethyl(3-(4-methyl-2-oxo-2H-chromen-7-yloxy)propanamido)(3-bromophenyl)methylphospho-nate] | > 100 µM | 25.8 ± 1.21 µM | 1730 M⁻¹ | 26.9% | 23.1% | 74.25% | – | – | – | –
2 | CCOP(=O)(OCC)C(C)(NC(=O)CCOc1ccc2c(C)cc(=O)oc2c1)c1ccccc1 (stereo not shown) [Compound 8j, Diethyl 1-(3-(4-methyl-2-oxo-2H-chromen-7-yloxy)propanamido)-1-phenylethylphosphonate] | – | – | 2350 M⁻¹ | 30.4% | 26.82% | – | > 100 µM | about 12 fold | 8.68 ± 3.2 µM | accumulation of cells in the G2 phase accompanying reduction in the G1 phase
